Columns and labels:
[1] = tested on: DU 145 cells; assay: BrdU cell proliferation assay, DU 145; assay type: cell-based, human; settings: DU 145, BrdU
Procedure: The anti-proliferative effects of compound on treated cells, was measured using the BrdU cell proliferation assay kit (Roche Applied Science Diagnostics, Indianapolis, IN, USA) according to the manufacturer’s protocol. The assay was based on incorporation of BrdU during DNA synthesis in proliferating cells. Cells were plated at a concentration of 10^4 cells/mL in a 96-well microtiter plate and incubated overnight. The cells were treated with compounds and curcumin (concentrations ranging from 1.56 µM–100 µM) as positive control for 24, 48 and 72 h respectively. Then, BrdU labeling solution (5 µL, diluted by 1/100 in culture media) was added to each well and incubated for 2 h at 37 °C. The media was replaced with fix/denaturing solution (100 µL) and incubated for 30 min at room temperature. Then, the fix/denaturing solution was removed by tapping off and followed by addition of 50 µL anti-BrdU antibody (50 µL, diluted by 1/100 in dilution buffer) to each well and further incubated for another 90 min at room temperature. Next, the cells were washed 3 times with wash buffer and substrate solution (50 µL) was added to each well. The plate was left for 10 min at room temperature in the dark and the absorbance was measured at a wavelength of 370 nm with a reference wavelength of 492 nm using a micro-plate ELISA reader (Bio-Rad). The percentage of BrdU incorporation was determined based on the ratio of absorbance of sample treated-cells to absorbance of control (untreated cells/DMSO only) multiplied by 100.

[2] = tested on: PC-3 cells; assay: Free nucleosome detection (Cell Death Detection ELISA), PC-3; assay type: cell-based, human; settings: PC-3, 9.0 and 13.5 µM, 24, 48 and 72 h
Procedure: To confirm the presence of histone-bound DNA fragments (free nucleosomes) in the prostate cancer cells after the treatment of MS17, Cell Death Detection ELISA^PLUS kit (Roche Diagnostics) was used according to the manufacturer’s protocol. Cells were plated on a bottom flat tissue culture plates at a concentration of 10^5 cells per well and incubated for 24 h to allow the cells to adhere. After overnight incubation, MS17 at various concentrations (EC50, 2 × EC50, 3 × EC50) were added to a final volume of 100 µL per well and further incubated for 24, 48 and 72 h. The plate was centrifuged at 600 rpm at 4 °C for 10 min. The cell pellet containing the apoptotic bodies was resuspended in lysis buffer and incubated for 30 min at room temperature. […] The amount of nucleosomes retained by the POD in the immunocomplex, corresponding to the extent of apoptosis and necrosis, was determined with 2,2'-azinobis-3-ethyl-benzothiazoline-6-sulfonic acid (ABTS) as substrate using a micro-plate ELISA reader at a wavelength of 405/490 nm. The amount of enrichment of mono- and oligonucleosomes released into the cytoplasm was calculated using the following formula: Enrichment factor= Absorbance of sample/Absorbance of control

[3] = tested on: androgen-dependent prostate cancer cells; parameters: method as in PMID 21796654; settings: cited from earlier work
[4] = tested on: PC-3 cells; assay: AO/EB double staining, morphology and quantification of apoptotic and necrotic cells, PC-3; assay type: cell-based, human
Procedure: Cell morphological changes were assessed by the differential staining DNA-intercalate fluorescent dyes acridine orange (AO) and ethidium bromide (EB). Cells (3 × 10^5) were seeded in a 6-well tissue culture plates, treated with MS17 at various concentrations (EC50, 2 × EC50, 3 × EC50) and incubated for 12, 24, 48 and 72 h time intervals. After incubation, cell pellets were suspended in 50 µL of cold PBS. To each samples, 10 µL of cell suspension was added with 1 µL of AO/EB dye mixture (1 part of 100 µg/mL of AO in PBS; 1 part of 100 µg/mL of EB in PBS) prior to microscopic examination. Ten microliter of the cell suspension mixed with the dye mixture was placed on a glass microscopic slide covered with a cover slip and was observed and photographed with a fluorescence microscope using a fluorescein filter (BX41, Olympus, Center Valley, PA, USA). A minimum of 200 total targeted cells were counted per sample and the percentage of cells from each population (viable, early apoptosis, late apoptosis and necrosis) was calculated. The experiment was conducted in triplicates. Untreated cells containing DMSO alone were used as negative control.

Question: For `O=C(C=Cc1ccccc1O)C=Cc1ccccc1O` [MS17, 1,5-bis(2-hydroxyphenyl)-1,4-pentadiene-3-one], which “concentration from which anti-proliferative activity is significant” value ([1]; 24 h) is on record?
Answer: Its value is 6.3 µM.

Question: What about the “concentration from which anti-proliferative activity is significant” value ([1]; 48 h) of the same molecule?
Answer: Its value is 6.3 µM.

Question: And the “concentration from which anti-proliferative activity is significant” value ([1]; 72 h)?
Answer: The value was 12.5 µM.

Question: What about the “nucleosomal fragments (enrichment factor)” value [2] of the same molecule?
Answer: Its value is “significant increase in nucleosomal fragments”.

Question: And the anti-androgenic effect [3]?
Answer: The anti-androgenic effect was “exert anti-androgenic effect”.

Question: And the “morphological observation of cell nuclei (AO/EB)” value ([4]; PC-3, MS17-treated vs untreated)?
Answer: Its value is “typical signs of apoptosis such as cell shrinkage, formation of apoptotic bodies and membrane blebbing”.

Question: What about the necrotic cells ([4]; PC-3, all three doses, 12 and 24 h) of the same molecule?
Answer: Its necrotic cells is “less than 5%”.
